These results are taken from patent US5051419A, “Prevention or elimination of mycoplasma contamination of animal or plant cell cultures” (Dainippon Pharmaceutical Co., Ltd., priority 1988, dated 1991).

The subject of one experiment is A. laidlawii PG-8. The experiment in a line: Activity of eliminating artificially contaminated mycoplasma from L-929 cells. Format: cell-based, Acholeplasma laidlawii. The method, then:
Animal cells, experimentally contaminated by mycoplasma, were cultivated for 4 days in a medium containing the test chemical and then sub-cultivated in a medium to which the test chemical was not added in order to determine whether the mycoplasma re-grew (re-contamination).
(1) Preparation of mycoplasma-contaminated cells
The mycoplasmas described in Table 3 were each pre-cultivated as in Test Example 1, (1). Two milliliters of the cultures were centifuged at 1,500×g for 30 minutes to separate the mycoplasmas. The isolated mycoplasmas were suspended in 2 ml of 10%-FBS-MEM medium (Eagle's minimum essential medium supplemented with 10% fetal bovine serum and 100 U/ml of penicillin G).
Separately, mouse fibroblast cells L-929 was suspended in 10%-FBS-MEM medium so that their density became 2.5×10^4 /ml. Four milliliters of the suspension was put in a petri dish (diameter 6 cm) for tissue culture including two circular cover glasses (diameter 1.8 cm), and then 1 ml of the mycoplasma suspension described above was added. The mixture was incubated at 37° C. in 5% CO2 humidified atmosphere for 3 days, and then sub-cultivated twice in order to obtain mycoplasma-contaminated cells. Mycoplasma-contamination was confirmed by the highly specific DNA-fluorochromic staining method (the above cited "Procedures for Isolation and identification of Human, Animal and Plant Mycoplasmas", pages 95-97).
(2) Experiment of eliminating mycoplasma contamination
(§1) Mycoplasma-contaminated L-929 cells were cultivated as described in the preceding section. A 1,000 μg/ml aqueous solution of a test chemical was prepared, and diluted to predetermined concentrations with Eagle's minimum essential medium. The diluted solutions were added to the culture medium. Two petri dishes were used for each concentration of the test chemical, and two circular cover glasses were put in one of them for examination of mycoplasma. No cover glass was put in the other petri dish, and it was used for subcultivation. Cultivation in the test chemical-containing medium was carried out for 4 days, and thereafter, the cultivation was continued for 3 weeks in a drug-free medium. Medium replacement was effected every 3 to 4 days, and subcultivation was carried out once a week. Examination for mycoplasma contamination was performed on the 4th and 7th days, and thereafter every week. The mycoplasmas were detected by the highly specific DNA-fluorochromic staining method.

Experiment [1] concerns human melanoma cells [II]. As to the kind of experiment: Activity of eliminating spontaneously contaminated mycoplasmas, cell [II]. Note: key: +: mycoplasma positive; -: mycoplasma negative. Format: cell-based, mycoplasma species unknown; human cells. As for the experimental part: as §1
The activity of test compound to eliminate mycoplasma contamination was tested as in Test Example 3 on spontaneously contaminated human lung carcinoma cells [I] and human melanoma cells [II].
The period during which the cultivation was continued in the presence of the test chemicals was 7 days, and the mycoplasma species which infected the cells were unknown.

Experiment [2] concerns mycoplasma. As to the kind of experiment: Anti-mycoplasmal activity (MIC), agar-dilution method, all species of Table 1 together. In kind it is cell-based. The following applies: in words. As for the experimental part: The minimum growth inhibitory concentrations (MIC; μg/ml) of the test chemicals were measured by the agar-dilution method.
(1) Preparation of a mycoplasma suspension for inoculation
A stored frozen suspension of mycoplasma (0.2 to 0.3 ml) was inoculated in 2 to 3 ml of a preculture medium to be described later. It was serially diluted tenfold until the dilution ratio reached 10,000 times. These diluted solutions were cultivated at 37° C. for 2 to 7 days. A culture having the highest dilution ratio was selected from those cultures in which a color change of the media was noted as a result of mycoplasma growth. It was diluted to 100 times with the preculture medium to prepare a mycoplasma suspension for inoculation.
(2) Preparation of agar plates containing the test chemicals
A 1,000 μg/ml aqueous solution of each test chemical was prepared (a difficultly-soluble chemical was dissolved by adding an equimolar amount of sodium hydroxide; the same applies hereinafter). The solution was used as a base solution and its twofold serial dilutions were prepared. The diluted solutions were pipetted on plastic petri dishes each in an amount of 1 ml. […]

Experiment [3] relates to mycoplasma. The experiment in a line: Anti-mycoplasmal activity (MIC, MMC), liquid dilution method, all species of Table 2 together. In kind it is cell-based. The conditions noted are these: in words. The method, then: The minimum growth inhibitory concentration (MIC, μg/ml) and minimum mycoplasmacidal concentration (MMC, μg/ml) of test chemicals were measured by the liquid dilution method. The method of measuring MIC in this example differs from that used in Test Example 1.
A 1,000 μg/ml aqueous solution of a test chemical was prepared, and diluted to 5 times with a preculture medium. The dilution (200 μg/ml) was serially diluted twofold with the same medium in a 8-well reservoir. Fifty microliters of each diluted solution was distributed in the wells of a microplate. A well to which no test chemical was added was used as a control.
A mycoplasma suspension for inoculation prepared as in Test Example 1 was pipetted in an amount of 50 microliters to each of the wells. The microplates were sealed by a plate seal, shaken by a micromixer, and cultivated at 37° C. for 5 days. […] At this time, 3 microliters of the liquid culture was inoculated in drug-free Chanock agar medium by using a Cathra-replicator. The liquid culture and the agar medium were further cultivated at 37° C. for 3 days (anaerobically in the case of M. orale, and aerobically in the case of A. laidlawii and M. arginini). MIC and MMC were determined from the results of observation on the 5th day. MIC was defined as the lowest concentration of the test chemical at which growth of mycoplasma in the drug-containing liquid medium was not noted, and MMC, as that in the drug-free agar medium.

For another experiment, the system named is Staphylococcus aureus. The experiment in a line: Antibacterial activity (MIC). The conditions noted are these: for MIC: unit inferred. In kind it is cell-based.

Converted amounts (≈) assume the structure as drawn.

For `CC1CN(c2c(F)c(N)c3c(=O)c(C(=O)O)cn(C4CC4)c3c2F)CCN1` (stereo not shown) [Compound 1], the mycoplasma elimination result in the experiment on A. laidlawii PG-8 (0.2 μg/ml, day 0) is “+”; with A. laidlawii PG-8 (0.2 μg/ml, day 4) it was “+”; in the experiment on A. laidlawii PG-8 (0.2 μg/ml, day 7) it was “+”; with A. laidlawii PG-8 (0.2 μg/ml, day 14), “+”; with A. laidlawii PG-8 (0.2 μg/ml, day 28), “+”; in the experiment with A. laidlawii PG-8 (0.39 μg/ml, day 0), “+”. The mycoplasma elimination entry is “-” with A. laidlawii PG-8 (0.39 μg/ml, day 4); “-” in the experiment with A. laidlawii PG-8 (0.39 μg/ml, day 7); “-” in the experiment on A. laidlawii PG-8 (0.39 μg/ml, day 14); “-” in the experiment with A. laidlawii PG-8 (0.39 μg/ml, day 28); “+” in experiment [1] (0.2 μg/ml, day 0); “-” in experiment [1] (0.2 μg/ml, day 7). In addition, the mycoplasma elimination result in experiment [1] (0.2 μg/ml, day 14) is “+”; in experiment [1] (0.2 μg/ml, day 21), “+”; in experiment [1] (0.2 μg/ml, day 28), “+”; in experiment [1] (0.39 μg/ml, day 0), “+”; in experiment [1] (0.39 μg/ml, day 7), “-”; in experiment [1] (0.39 μg/ml, day 14), “-”. The mycoplasma elimination result is reported as “-” in experiment [1] (0.39 μg/ml, day 21) and “-” in experiment [1] (0.39 μg/ml, day 28). In addition, in the experiment on mycoplasma [2], the “anti-mycoplasmal activity (MIC) compared with control compounds” value is listed as “better than those of control compounds 2 to 4”. Moreover, the “MIC compared with MMC” value against mycoplasma [3] (Table 2) is “identical with their MMC values”. Moreover, the “mode of action at the MIC” value in the experiment on mycoplasma [3] (Table 2) was “act mycoplasmacidally at the MICs”. The MIC (usually the smallest concentration in the dilution series that meets the test's criterion for growth inhibition) with Staphylococcus aureus (Staphylococcus aureus) came out at 0.025 µg/mL (≈ 0.0661 µM).
Consider `CN(C)c1ccc(O)c2c1C[C@H]1C[C@H]3[C@H](N(C)C)C(O)=C(C(N)=O)C(=O)[C@@]3(O)C(O)=C1C2=O` [Compound 3, minocycline], for which the mycoplasma elimination result with A. laidlawii PG-8 (12.5 μg/ml, day 0) is given as “+”; with A. laidlawii PG-8 (12.5 μg/ml, day 4), “-”; with A. laidlawii PG-8 (12.5 μg/ml, day 7) it was “+”; in the experiment on A. laidlawii PG-8 (12.5 μg/ml, day 14), “+”; with A. laidlawii PG-8 (12.5 μg/ml, day 28), “+”. Also, the “mode of action at the MIC” value in the experiment on mycoplasma [3] (Table 2) is “acts bacteriostatically, and not mycoplasmacidally, at its MIC”.
Consider `NCC1CN(c2c(F)c(N)c3c(=O)c(C(=O)O)cn(C4CC4)c3c2F)CCO1` (stereo not shown) [Compound A, 5-amino-7-(2-aminomethylmorpholino)-1-cyclopropyl-6,8-difluoro-1,4-dihydro-4-oxoquinoline-3-carboxylic acid], for which the mycoplasma elimination entry is “+” in the experiment on A. laidlawii PG-8 (0.1 μg/ml, day 0); “-” in the experiment on A. laidlawii PG-8 (0.1 μg/ml, day 4); “+” with A. laidlawii PG-8 (0.1 μg/ml, day 7); “+” in the experiment with A. laidlawii PG-8 (0.1 μg/ml, day 14); “+” in the experiment with A. laidlawii PG-8 (0.1 μg/ml, day 28); “+” in the experiment with A. laidlawii PG-8 (0.2 μg/ml, day 0). Further, the mycoplasma elimination result in the experiment with A. laidlawii PG-8 (0.2 μg/ml, day 4) is listed as “-”; in the experiment with A. laidlawii PG-8 (0.2 μg/ml, day 7), “-”; in the experiment on A. laidlawii PG-8 (0.2 μg/ml, day 14), “-”; in the experiment with A. laidlawii PG-8 (0.2 μg/ml, day 28), “-”; in experiment [1] (0.1 μg/ml, day 0), “+”; in experiment [1] (0.1 μg/ml, day 7), “-”. Also, the mycoplasma elimination entry in experiment [1] (0.1 μg/ml, day 14) is “+”; in experiment [1] (0.1 μg/ml, day 21), “+”; in experiment [1] (0.1 μg/ml, day 28), “+”; in experiment [1] (0.2 μg/ml, day 0) it was “+”; in experiment [1] (0.2 μg/ml, day 7), “-”; in experiment [1] (0.2 μg/ml, day 14) it was “-”. For the same compound, the mycoplasma elimination entry was “-” in experiment [1] (0.2 μg/ml, day 21) and “-” in experiment [1] (0.2 μg/ml, day 28). Also, the “anti-mycoplasmal activity (MIC) compared with control compounds” value in the experiment with mycoplasma [2] is “more potent than those of control compounds 1 to 4”. For the same compound, the “MIC compared with MMC” value with mycoplasma [3] (Table 2) was “identical with their MMC values”. Also, the “anti-mycoplasmal activity compared with control compounds” value in the experiment with mycoplasma [3] (Table 2) was “better than those of the control compounds”. Besides, the “mode of action at the MIC” value with mycoplasma [3] (Table 2) is “act mycoplasmacidally at the MICs”. Besides, the “mycoplasmacidal activity, overall” value in the experiment on mycoplasma [3] (summary) was “excellent mycoplasmacidal activity”. This compound also showed an MIC against Staphylococcus aureus (Staphylococcus aureus) of 0.0063 µg/mL (≈ 0.016 µM). In addition, the antibacterial activity entry in the experiment with Staphylococcus aureus (in words) is “potent antibacterial activity and is superior to control compounds 1 to 4”. In addition, in the experiment with Staphylococcus aureus (in words, Staphylococcus aureus), the “antibacterial activity relative to compound 1” value is on record as “about four times as potent antibacterial activity as compound 1”.
